ChEMBL document CHEMBL3091348, “Discovery of an intravenous hepatoselective glucokinase activator for the treatment of inpatient hyperglycemia” (Bioorg Med Chem Lett, 2013)
≈ marks a conversion by molar mass, not a printed value.

How the values were obtained:
[1] = Aqueous solubility of the compound at pH 8.5; assay type: physicochemical
[2] = biological target: T1, Hexokinase-4 (Homo sapiens) (UniProt P35557); test: Activation of recombinant human glucokinase assessed as decrease in enzyme Km for glucose by G6PDH/NADP coupled assay relative to control
T1 sequence (whole entry): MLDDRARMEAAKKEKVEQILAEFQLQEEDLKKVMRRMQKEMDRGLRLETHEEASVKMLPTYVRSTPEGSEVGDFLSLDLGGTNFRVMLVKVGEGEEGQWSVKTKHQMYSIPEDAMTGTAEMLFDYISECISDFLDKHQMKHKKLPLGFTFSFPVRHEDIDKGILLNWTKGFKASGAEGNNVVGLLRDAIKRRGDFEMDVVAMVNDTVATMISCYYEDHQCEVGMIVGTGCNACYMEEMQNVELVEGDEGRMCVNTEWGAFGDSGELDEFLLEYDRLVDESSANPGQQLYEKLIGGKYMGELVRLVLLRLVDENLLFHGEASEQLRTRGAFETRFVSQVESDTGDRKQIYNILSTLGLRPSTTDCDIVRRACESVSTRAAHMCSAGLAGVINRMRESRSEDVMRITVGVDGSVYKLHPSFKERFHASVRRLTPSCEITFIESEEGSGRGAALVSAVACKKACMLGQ

[3] = biological target: T1, Hexokinase-4 (Homo sapiens); test: Activation of recombinant human glucokinase assessed as increase in enzyme Vmax for glucose by G6PDH/NADP coupled assay relative to control
[4] = biological target: T2, Hexokinase-4 (Homo sapiens, UniProt P35557); test: Activation of recombinant human glucokinase by G6PDH/NADP coupled assay
T2 sequence (P35557 whole entry): T1 sequence (whole entry)

[5] = Lipophilicity, log D of the compound at pH 7.4; assay type: physicochemical; settings: buffer
[6] = Apparent permeability across RRCK cells; assay type: ADME, cell-based, Canis lupus familiaris, MDCKII-LE; settings: dog, MDCK
[7] = biological target: T3, OATP1B3 (Homo sapiens, UniProt Q9NPD5); test: Activity at OATP1B3 (unknown origin) transfected in HEK cells assessed as transporter-mediated cellular uptake relative to mock-transfected HEK cells; assay type: ADME, cell-based; settings: HEK293 cells transfected with OATP1B3, read-out: FC
T3 sequence (Q9NPD5 whole entry): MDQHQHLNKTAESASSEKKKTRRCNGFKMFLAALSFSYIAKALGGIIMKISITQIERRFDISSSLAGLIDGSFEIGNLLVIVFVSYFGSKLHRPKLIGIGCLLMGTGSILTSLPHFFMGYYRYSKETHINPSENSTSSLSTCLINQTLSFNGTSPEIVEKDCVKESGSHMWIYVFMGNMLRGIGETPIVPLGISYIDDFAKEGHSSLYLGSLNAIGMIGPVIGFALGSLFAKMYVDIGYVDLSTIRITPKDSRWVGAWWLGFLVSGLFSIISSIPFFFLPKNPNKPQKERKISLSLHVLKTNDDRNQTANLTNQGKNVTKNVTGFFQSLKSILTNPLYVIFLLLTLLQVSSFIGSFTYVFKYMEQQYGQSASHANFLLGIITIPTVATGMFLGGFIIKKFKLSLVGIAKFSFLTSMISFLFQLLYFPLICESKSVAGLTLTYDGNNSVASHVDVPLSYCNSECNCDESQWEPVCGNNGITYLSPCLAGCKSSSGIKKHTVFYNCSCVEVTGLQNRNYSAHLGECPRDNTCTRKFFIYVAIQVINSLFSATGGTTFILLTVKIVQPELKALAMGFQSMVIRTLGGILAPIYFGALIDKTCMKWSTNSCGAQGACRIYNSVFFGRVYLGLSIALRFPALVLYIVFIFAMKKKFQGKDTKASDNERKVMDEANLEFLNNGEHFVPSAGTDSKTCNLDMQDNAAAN

[8] = Apparent permeability in RRCK cells at pH 7.4; assay type: ADME, cell-based, Canis lupus familiaris, MDCKII-LE; settings: dog, MDCK
[9] = biological target: T4, Hexokinase-4 (Rattus norvegicus, UniProt P17712); test: Activation of glucokinase in Wistar rat hepatocytes assessed as nuclear to cytosolic translocation of protein by immunofluorescence assay; assay type: cell-based, Hepatocyte
T4 sequence (P17712 whole entry): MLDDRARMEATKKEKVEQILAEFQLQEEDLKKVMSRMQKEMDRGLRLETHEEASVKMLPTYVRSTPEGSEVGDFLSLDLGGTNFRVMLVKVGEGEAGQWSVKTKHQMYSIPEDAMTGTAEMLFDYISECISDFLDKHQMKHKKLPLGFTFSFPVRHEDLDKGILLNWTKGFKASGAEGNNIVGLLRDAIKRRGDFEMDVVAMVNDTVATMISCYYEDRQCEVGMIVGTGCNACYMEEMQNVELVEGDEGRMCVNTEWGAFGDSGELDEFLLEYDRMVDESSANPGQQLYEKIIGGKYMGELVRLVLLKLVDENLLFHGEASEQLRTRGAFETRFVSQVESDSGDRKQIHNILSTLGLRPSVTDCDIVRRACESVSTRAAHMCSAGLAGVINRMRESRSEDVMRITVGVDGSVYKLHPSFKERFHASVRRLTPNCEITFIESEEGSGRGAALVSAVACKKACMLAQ

[10] = Cmax in rat at 1 mg/kg, iv; assay type: ADME, organism-based; design: dose 1 mg/kg, route intravenous; settings: in vivo
[11] = Cmax in dog at 1 mg/kg, iv; assay type: ADME, organism-based, Canis lupus familiaris; design: dose 1 mg/kg, route intravenous; settings: in vivo
[12] = AUC (0 to 24 hrs) in rat at 5 mg/kg, po; assay type: ADME, organism-based; design: time < 24 hr, dose 5 mg/kg, route oral; settings: plasma
[13] = Aqueous kinetic solubility of the compound at pH 6.5; assay type: physicochemical; settings: read-out: Kinetic_solubility
[14] = Oral bioavailability in dog at 5 mg/kg; assay type: ADME, organism-based, Canis lupus familiaris; settings: in vivo
[15] = Cmax in rat at 5 mg/kg, po; assay type: ADME, organism-based; design: dose 5 mg/kg, route oral; settings: in vivo
[16] = Apparent permeability in RRCK cells at pH 5.5; assay type: ADME, cell-based, Canis lupus familiaris, MDCKII-LE; settings: dog, MDCK
[17] = test system: Rattus norvegicus; test: Antihyperglycemic activity in rat assessed as liver to plasma AUC ratio at 5 mg/kg, iv administered as bolus after 1 to 6 hrs; assay type: functional
[18] = biological target: T5, OATP1B1 (Homo sapiens, UniProt Q9Y6L6); test: Activity at OATP1B1 (unknown origin) transfected in HEK cells assessed as transporter-mediated cellular uptake relative to mock-transfected HEK cells; assay type: ADME, cell-based; settings: HEK293 cells transfected with OATP1B1, read-out: FC
T5 sequence (Q9Y6L6 whole entry): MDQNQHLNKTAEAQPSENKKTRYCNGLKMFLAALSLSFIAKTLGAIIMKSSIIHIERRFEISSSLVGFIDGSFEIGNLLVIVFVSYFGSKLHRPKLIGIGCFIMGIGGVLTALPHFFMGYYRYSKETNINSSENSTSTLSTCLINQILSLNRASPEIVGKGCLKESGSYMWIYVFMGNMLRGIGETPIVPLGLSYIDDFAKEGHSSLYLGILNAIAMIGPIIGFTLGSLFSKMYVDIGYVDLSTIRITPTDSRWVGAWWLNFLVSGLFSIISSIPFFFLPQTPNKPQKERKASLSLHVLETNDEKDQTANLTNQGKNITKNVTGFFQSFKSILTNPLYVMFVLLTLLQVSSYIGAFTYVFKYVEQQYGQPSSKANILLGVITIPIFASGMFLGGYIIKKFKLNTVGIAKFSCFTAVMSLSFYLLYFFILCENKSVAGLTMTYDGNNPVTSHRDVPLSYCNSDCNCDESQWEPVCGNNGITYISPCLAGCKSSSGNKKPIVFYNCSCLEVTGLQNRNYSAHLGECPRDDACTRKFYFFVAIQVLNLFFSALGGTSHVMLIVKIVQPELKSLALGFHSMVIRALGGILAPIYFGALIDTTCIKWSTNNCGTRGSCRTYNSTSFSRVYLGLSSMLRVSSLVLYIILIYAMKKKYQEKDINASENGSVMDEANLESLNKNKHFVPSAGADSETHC

[19] = Half life in dog at 1 mg/kg, iv; assay type: ADME, organism-based, Canis lupus familiaris; design: dose 1 mg/kg, route intravenous; settings: in vivo
[20] = biological target: T4, Hexokinase-4; test: Activation of glucokinase in rat INS-1 cells assessed as glucose-stimulated insulin secretion; assay type: cell-based, INS1
[21] = Apparent permeability in RRCK cells at pH 6.5; assay type: ADME, cell-based, Canis lupus familiaris, MDCKII-LE; settings: dog, MDCK
[22] = Organic anion transporter-mediated drug uptake in rat hepatocytes assessed as total uptake; assay type: ADME, cell-based, Hepatocyte
[23] = Volume of distribution at steady state in dog at 1 mg/kg, iv; assay type: ADME, organism-based, Canis lupus familiaris; design: dose 1 mg/kg, route intravenous; settings: in vivo, read-out: Vdss
[24] = Organic anion transporter-mediated drug uptake in rat hepatocytes assessed as passive uptake; assay type: ADME, cell-based, Hepatocyte
[25] = Clearance in dog at 1 mg/kg, iv; assay type: ADME, organism-based, Canis lupus familiaris; design: dose 1 mg/kg, route intravenous; settings: in vivo
[26] = Half life in rat at 1 mg/kg, iv; assay type: ADME, organism-based; design: dose 1 mg/kg, route intravenous; settings: in vivo
[27] = test system: Rattus norvegicus; test: Antihyperglycemic activity in rat assessed as liver to plasma AUC ratio at EC50 dose, iv administered as infusion up to 4 days; assay type: functional
[28] = test system: Rattus norvegicus; test: Antidiabetic activity in Goto-Kakizaki rat diabetic model assessed as reduction in glucose excursion AUC at 24 mg/kg, iv administered as infusion for 4 hrs measured after 2 hrs by oral glucose tolerance test relative to control; assay type: functional; design: scale not given: the % may be the effect or the level left
[29] = Cmax in dog at 5 mg/kg, po; assay type: ADME, organism-based, Canis lupus familiaris; design: dose 5 mg/kg, route oral; settings: in vivo
[30] = Oral bioavailability in rat at 5 mg/kg; assay type: ADME, organism-based; settings: in vivo
[31] = AUC (0 to 24 hrs) in dog at 1 mg/kg, iv; assay type: ADME, organism-based, Canis lupus familiaris; design: time < 24 hr, dose 1 mg/kg, route intravenous; settings: plasma
[32] = Intrinsic clearance in human liver microsomes; assay type: ADME; settings: read-out: CLH
[33] = Clearance in rat at 1 mg/kg, iv; assay type: ADME, organism-based; design: dose 1 mg/kg, route intravenous; settings: in vivo
[34] = Volume of distribution at steady state in rat at 1 mg/kg, iv; assay type: ADME, organism-based; design: dose 1 mg/kg, route intravenous; settings: in vivo, read-out: Vdss
[35] = AUC (0 to 24 hrs) in dog at 5 mg/kg, po; assay type: ADME, organism-based, Canis lupus familiaris; design: time < 24 hr, dose 5 mg/kg, route oral; settings: plasma
[36] = Organic anion transporter-mediated drug uptake in rat hepatocytes assessed as active uptake; assay type: ADME, cell-based, Hepatocyte
[37] = AUC (0 to 24 hrs) in rat at 1 mg/kg, iv; assay type: ADME, organism-based; design: time < 24 hr, dose 1 mg/kg, route intravenous; settings: plasma

In the case of `O=C([O-])c1ccc(NC(=O)[C@H](CC2CCCC2)n2cnc(S(=O)(=O)C3CCC3)c2)nc1.[Na+]`, the solubility [1] is reported as 41 mM.
For `O=C(O)c1ccc(NC(=O)[C@H](CC2CCCC2)n2cnc(S(=O)(=O)C3CCC3)c2)nc1` [listing 1 of 2 here], the fold change (FC) [2] was 0.06 and the fold change (FC) [3] was 1.35.
For `O=C(O)c1ccc(NC(=O)[C@H](CC2CCOCC2)n2cnc(S(=O)(=O)C3CCC3)c2)nc1`, the EC50 [4] was > 10 µM, the logD [5] was -1.55 and the Papp [6] was 0.9 ×10⁻⁶ cm/s.
With `O=C(O)c1ccc(NC(=O)[C@H](CC2CCCC2)n2cnc(S(=O)(=O)C3CCC3)c2)nc1` [listing 2 of 2 here] the uptake ratio [7] was 2.3, the Papp [8] was 2 ×10⁻⁶ cm/s and the IC50 [9] was 1.7 µM. It also gave a Cmax [10] of 1400 ng/mL, a Cmax [11] of 6350 ng/mL and an AUC(0-t) at 24 h [12] of 3.4 ng·h/mL. For the same compound, the solubility kinetic [13] was 0.428 mM (≈ 191 µg/mL), the bioavailability [14] was < 5% and the Cmax [15] was 2.5 ng/mL. The EC50 [4] was 0.201 µM, the Papp [16] was 1.4 ×10⁻⁶ cm/s and the “Ratio AUC” value [17] was 2. It also gave an uptake ratio [18] of 4.1, a half-life [19] of 42 min and an EC50 [20] of 174 µM. The Papp [21] was 1.3 ×10⁻⁶ cm/s, the Drug uptake [22] was 22 µL/min/mg and the Vd [23] was 0.4 L/kg. For the same compound, the Drug uptake [24] was 12 µL/min/mg, the clearance [25] was 18 mL/min/kg and the half-life [26] was 12 min. The “Ratio AUC” value [27] was 3.5, the Activity [28] was 15.4% and the Cmax [29] was 12.8 ng/mL. For the same compound, the bioavailability [30] was < 1%, the AUC(0-t) at 24 h [31] was 932 ng·h/mL and the CLint scaled [32] was < 8 mL/min/kg. It also gave a clearance [33] of 96 mL/min/kg, a Vd [34] of 0.8 L/kg and an AUC(0-t) at 24 h [35] of 36.6 ng·h/mL. The logD [5] was -0.1, the Drug uptake [36] was 55% and the AUC(0-t) at 24 h [37] was 176 ng·h/mL. For the same compound, the Papp [6] was 0.5 ×10⁻⁶ cm/s.
Work on `CC(C)c1nc(N(C)S(C)(=O)=O)nc(-c2ccc(F)cc2)c1/C=C/[C@@H](O)C[C@@H](O)CC(=O)O` [ROSUVASTATIN] yielded a Drug uptake [22] of 158 µL/min/mg, a Drug uptake [24] of 5.8 µL/min/mg and a Drug uptake [36] of 91%.
